These results are taken from ChEMBL document CHEMBL3997818, “Structure-activity relationship studies of 1-(1'-hydroxyalkyl)rupestonic acid methyl esters against influenza viruses” (Bioorg Med Chem Lett, 2017).

SMILES strings stand for the structures. ≈ marks a conversion by molar mass, not a printed value.

Data set [1] is described as follows: Cytotoxicity against MDCK cells after 48 hrs by Reed and Muench analysis. The data set is classed as cell-based, Canis lupus familiaris. Conditions: dog, read-out: TC50.
For the next data set, the system named is Influenza A virus H3N2. In words: Antiviral activity against Influenza A virus H3N2 infected in MDCK cells assessed as inhibition of virus-induced cytopathic effect after 40 hrs. The data set is classed as functional, cell-based.
The next data set deals with Influenza A virus. In words: Antiviral activity against Influenza A virus H1N1 infected in MDCK cells assessed as inhibition of virus-induced cytopathic effect after 40 hrs. The data set is classed as functional, cell-based. (Damage to the host cells serves as the signal in cytopathic effect assays.)
For another data set, the system named is Influenza B virus. As to the kind of experiment: Antiviral activity against Influenza B virus infected in MDCK cells assessed as inhibition of virus-induced cytopathic effect after 40 hrs. In kind it is functional, cell-based.
Data set [2] in a line: Selectivity index, ratio of TC50 for MDCK cells to IC50 for Influenza A virus H3N2 infected in MDCK cells. The data set is classed as toxicity, cell-based. Conditions: dog, read-out: Selectivity Index.
Data set [3] can be described thus: Selectivity index, ratio of TC50 for MDCK cells to IC50 for Influenza A virus H1N1 infected in MDCK cells. The conditions noted are these: dog, read-out: Selectivity Index. In kind it is toxicity, cell-based.
Data set [4] is described as follows: Selectivity index, ratio of TC50 for MDCK cells to IC50 for Influenza B virus infected in MDCK cells. The data set is classed as toxicity, cell-based. Conditions: dog, read-out: Selectivity Index.

For orientation: IC50 means the concentration at which inhibition is half-maximal. In the case of `C=C(C(=O)OC)[C@@H]1CC[C@H](C)[C@H]2C(=C(C)C(=O)[C@@H]2[C@H](O)/C=C(\C)CCC=C(C)C)C1`, the CC50 at 48 h in data set [1] came to 3.56 µg/mL (≈ 8.59 µM). The IC50 in the data set with Influenza A virus H3N2 was determined as 1.6 µg/mL (≈ 3.86 µM); in the data set with Influenza A virus it was 2.06 µg/mL (≈ 4.97 µM); in the data set with Influenza B virus, 1.2 µg/mL (≈ 2.89 µM). The values for the selectivity ratio in data set [2], in data set [3] and in data set [4] were 2.2, 1.7 and 3, respectively.
Turning to `C=C(C(=O)OC)[C@@H]1CC[C@H](C)[C@@H]2CC(=O)C(C)=C2C1`, in data set [1], the CC50 at 48 h worked out at 55.6 µg/mL (≈ 212 µM). Also, the IC50 with Influenza A virus H3N2 is 19 µg/mL (≈ 72.4 µM); in the data set with Influenza A virus it was more than 18.5 µg/mL; in the data set with Influenza B virus, more than 18.5 µg/mL. In addition, the selectivity ratio in data set [2] came out at 3.
On to `C=C(C(=O)OC)[C@@H]1CC[C@H](C)[C@H]2C(=C(C)C(=O)[C@@H]2[C@@H](C)O)C1`, for which the CC50 at 48 h in data set [1] turned out to be 500 µg/mL (≈ 1630 µM). For the same compound, the half-maximal inhibitory concentration (IC50) is more than 167 µg/mL in the data set with Influenza A virus H3N2, 90 µg/mL (≈ 294 µM) with Influenza A virus and 72 µg/mL (≈ 235 µM) with Influenza B virus. The selectivity ratio is 5 in data set [3] and 7 in data set [4].
`C=C(C(=O)OC)[C@@H]1CC[C@H](C)[C@H]2C(=C(C)C(=O)[C@@H]2[C@H](O)CC)C1`: the CC50 at 48 h in data set [1] turned out to be 167 µg/mL (≈ 520 µM). Moreover, the half-maximal inhibitory concentration (IC50) in the data set with Influenza A virus H3N2 is more than 55.6 µg/mL; in the data set with Influenza A virus, 14.4 µg/mL (≈ 44.8 µM); with Influenza B virus, 18.5 µg/mL (≈ 57.8 µM). In addition, the selectivity ratio in data set [3] was 9; in data set [4], 7.
As for `C=C(C(=O)OC)[C@@H]1CC[C@H](C)[C@H]2C(=C(C)C(=O)[C@@H]2C(O)c2cc(F)cc(F)c2)C1` (single isomer, unassigned), the CC50 at 48 h in data set [1] stood at 32.1 µg/mL (≈ 79.3 µM). In addition, the half-maximal inhibitory concentration (IC50) with Influenza A virus H3N2 worked out at 14 µg/mL (≈ 34.6 µM); in the data set on Influenza A virus it was 2.63 µg/mL (≈ 6.5 µM); in the data set on Influenza B virus, 18.5 µg/mL (≈ 45.8 µM). Also, the selectivity ratio in data set [2] amounted to 2.2; in data set [3], 12.2; in data set [4], 1.7.
As to `C=C(C(=O)OC)[C@@H]1CC[C@H](C)[C@H]2C(=C(C)C(=O)[C@@H]2C(O)c2cc(OC)c(OC)c(OC)c2)C1` (single isomer, unassigned), the CC50 at 48 h in data set [1] amounted to 167 µg/mL (≈ 363 µM). Further, the half-maximal inhibitory concentration (IC50) is 56 µg/mL (≈ 122 µM) with Influenza A virus H3N2, 13 µg/mL (≈ 28.4 µM) with Influenza A virus and more than 55.6 µg/mL in the data set with Influenza B virus. In addition, the selectivity ratio was determined as 3 in data set [2] and 13 in data set [3].
As for `C=C(C(=O)OC)[C@@H]1CC[C@H](C)[C@H]2C(=C(C)C(=O)[C@@H]2C(O)c2ccc(OC)cc2)C1` (single isomer, unassigned), the CC50 at 48 h in data set [1] amounted to 80.1 µg/mL (≈ 201 µM). The figures for the IC50 with Influenza A virus H3N2, in the data set with Influenza A virus and in the data set with Influenza B virus were more than 18.5 µg/mL, more than 18.5 µg/mL and 18.5 µg/mL (≈ 46.5 µM), respectively. In addition, the selectivity ratio in data set [4] turned out to be 4.3.
With `C=C(C(=O)OC)[C@@H]1CC[C@H](C)[C@H]2C(=C(C)C(=O)[C@@H]2C(O)c2cccs2)C1` (single isomer, unassigned), the CC50 at 48 h in data set [1] amounted to 8.9 µg/mL (≈ 23.8 µM). Moreover, the IC50 in the data set with Influenza A virus H3N2 is 1.19 µg/mL (≈ 3.18 µM); in the data set on Influenza A virus, more than 2.06 µg/mL; in the data set on Influenza B virus, more than 2.06 µg/mL. Also, the selectivity ratio in data set [2] came out at 7.5.
For `C=C(C(=O)OC)[C@@H]1CC[C@H](C)[C@H]2C(=C(C)C(=O)[C@@H]2C(O)c2ccc(F)cc2)C1` (single isomer, unassigned), the CC50 at 48 h in data set [1] was 80.1 µg/mL (≈ 207 µM). For the same compound, the figures for the IC50 in the data set on Influenza A virus H3N2, in the data set with Influenza A virus and in the data set with Influenza B virus were more than 18.5 µg/mL, 19 µg/mL (≈ 49.2 µM) and 11 µg/mL (≈ 28.5 µM), respectively. For the same compound, the selectivity ratio in data set [3] was 4.3; in data set [4], 7.5.
Turning to `C=C(C(=O)OC)[C@@H]1CC[C@H](C)[C@H]2C(=C(C)C(=O)[C@@H]2C(O)c2cc(Cl)cc(Cl)c2)C1` (single isomer, unassigned), the CC50 at 48 h in data set [1] stood at 10.7 µg/mL (≈ 24.4 µM). The results for the IC50 in the data set on Influenza A virus H3N2, with Influenza A virus and in the data set on Influenza B virus were 6 µg/mL (≈ 13.7 µM), more than 6.17 µg/mL and more than 6.17 µg/mL, respectively. In data set [2], the selectivity ratio came to 1.7.
Regarding `C=C(C(=O)OC)[C@@H]1CC[C@H](C)[C@H]2C(=C(C)C(=O)[C@@H]2C(O)c2ccccc2)C1` (single isomer, unassigned), the CC50 at 48 h in data set [1] came to 12.8 µg/mL (≈ 34.8 µM). Moreover, the IC50 in the data set with Influenza A virus H3N2 was 6 µg/mL (≈ 16.3 µM); with Influenza A virus, 6.17 µg/mL (≈ 16.7 µM); in the data set on Influenza B virus, more than 6.17 µg/mL. Further, the selectivity ratio in data set [2] and in data set [3] was 2.1 each time.
`C=C(C(=O)OC)[C@@H]1CC[C@H](C)[C@H]2C(=C(C)C(=O)[C@@H]2C(O)c2ccc([N+](=O)[O-])s2)C1` (single isomer, unassigned): the CC50 at 48 h in data set [1] came to 4.28 µg/mL (≈ 10.2 µM). In addition, the IC50 with Influenza A virus H3N2 is more than 2.06 µg/mL; in the data set on Influenza A virus, 1.6 µg/mL (≈ 3.81 µM); in the data set with Influenza B virus, 2.06 µg/mL (≈ 4.91 µM). Moreover, the selectivity ratio in data set [3] amounted to 2.7; in data set [4], 2.1.
Consider `C=C(C(=O)OC)[C@@H]1CC[C@H](C)[C@H]2C(=C(C)C(=O)[C@@H]2C(O)c2cc(C(F)(F)F)cc(C(F)(F)F)c2)C1` (single isomer, unassigned), for which the CC50 at 48 h in data set [1] was 32.1 µg/mL (≈ 63.6 µM). Further, the values for the half-maximal inhibitory concentration (IC50) in the data set with Influenza A virus H3N2, in the data set with Influenza A virus and in the data set with Influenza B virus were 18.5 µg/mL (≈ 36.7 µM), 11 µg/mL (≈ 21.8 µM) and more than 18.5 µg/mL, respectively. Besides, the selectivity ratio in data set [2] was 1.7; in data set [3] it was 3.
With `C=C(C(=O)OC)[C@@H]1CC[C@H](C)[C@H]2C(=C(C)C(=O)[C@@H]2C(O)c2ccncc2)C1` (single isomer, unassigned), the CC50 at 48 h in data set [1] stood at 80.1 µg/mL (≈ 217 µM). Also, the figures for the IC50 with Influenza A virus H3N2, in the data set with Influenza A virus and with Influenza B virus were more than 18.5 µg/mL, 10.7 µg/mL (≈ 28.9 µM) and 18.5 µg/mL (≈ 50.1 µM), respectively. Also, the selectivity ratio in data set [3] was 7.5; in data set [4], 4.3.
On to `C=C(C(=O)OC)[C@@H]1CC[C@H](C)[C@H]2C(=C(C)C(=O)[C@@H]2C(O)c2ccc(N(C)C)cc2)C1` (single isomer, unassigned), for which the CC50 at 48 h in data set [1] came to 32.1 µg/mL (≈ 78 µM). In addition, the figures for the IC50 in the data set on Influenza A virus H3N2, in the data set on Influenza A virus and with Influenza B virus were 18.5 µg/mL (≈ 45 µM), 10.7 µg/mL (≈ 26 µM) and more than 18.5 µg/mL, respectively. Moreover, the selectivity ratio in data set [2] is 1.7; in data set [3] it was 3.
As to `C=C(C(=O)OC)[C@@H]1CC[C@H](C)[C@H]2C(=C(C)C(=O)[C@@H]2C(O)c2ccc(OC(F)(F)F)cc2)C1` (single isomer, unassigned), in data set [1], the CC50 at 48 h is 32.1 µg/mL (≈ 70.9 µM). In addition, the concentration for half-maximal inhibition (IC50) in the data set on Influenza A virus H3N2 was 18 µg/mL (≈ 39.8 µM); with Influenza A virus, more than 18.5 µg/mL; in the data set on Influenza B virus, more than 18.5 µg/mL. The selectivity ratio in data set [2] amounted to 1.7.
For the compound `CCOC(=O)C1=C[C@@H](OC(CC)CC)[C@H](NC(C)=O)[C@@H](N)C1` [OSELTAMIVIR], the results for the IC50 with Influenza A virus H3N2 and with Influenza A virus were 1.7 µg/mL (≈ 5.44 µM) and 3.9 µg/mL (≈ 12.5 µM), respectively.
As for `C=C(C(=O)O)[C@@H]1CC[C@H](C)[C@@H]2CC(=O)C(C)=C2C1` [PECHUELOIC ACID], the CC50 at 48 h in data set [1] was 240 µg/mL (≈ 968 µM). The IC50 turned out to be 55.6 µg/mL (≈ 224 µM) in the data set on Influenza A virus H3N2, 55.6 µg/mL (≈ 224 µM) in the data set on Influenza A virus and 24 µg/mL (≈ 96.6 µM) in the data set with Influenza B virus. Further, the selectivity ratio was found to be 4.3 in data set [2], 4.3 in data set [3] and 10 in data set [4].
As for `NC(=O)c1ncn([C@@H]2O[C@H](CO)[C@@H](O)[C@H]2O)n1` [RIBAVIRIN], the half-inhibitory concentration (IC50) is 1.1 µg/mL (≈ 4.5 µM) in the data set on Influenza A virus H3N2, 2.1 µg/mL (≈ 8.6 µM) in the data set with Influenza A virus and 0.8 µg/mL (≈ 3.28 µM) with Influenza B virus. Moreover, the selectivity ratio in data set [2] was determined as 1100; in data set [3], 560; in data set [4], 1400.
